Source: PubChem BioAssay AID1918994 (Molecular Pharmacology Branch, DTP, NCI, 2023)
Blank lines part the entries; values can stand above or below the molecule they belong to.

System: 292921-168-R-J2-PDC complex spheroid growth
Assay: Anticancer human tumor 292921-168-R-J2-PDC patient-derived pancreatic carcinoma cell line growth inhibition [AhR]
Conditions: for IC50: curve of first compound; for viability, T/C: stronger effect = lower value
Outline: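 Spheroids combined tumor cells with HUVEC endothelial cells and human MSCs as stroma. AhR antagonists were paired with standard or investigational drugs, each dosed in half-log steps down from near clinical Cmax, or from 10 microM where Cmax was unknown.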

[1] = second compound 0.1 µM, first compound 0.0316 µM
[2] = second compound 0.1 µM, first compound 0.1 µM
[3] = second compound 0.1 µM, first compound 0.316 µM
[4] = second compound 0.1 µM, first compound 1 µM
[5] = second compound 0.1 µM, first compound 3.16 µM
[6] = second compound 0.1 µM, first compound 10 µM
[7] = second compound 0.316 µM, first compound 0.0316 µM
[8] = second compound 0.316 µM, first compound 0.1 µM
[9] = second compound 0.316 µM, first compound 0.316 µM
[10] = second compound 0.316 µM, first compound 1 µM
[11] = second compound 0.316 µM, first compound 3.16 µM
[12] = second compound 0.316 µM, first compound 10 µM
[13] = second compound 1 µM, first compound 0.0316 µM
[14] = second compound 1 µM, first compound 0.1 µM
[15] = second compound 1 µM, first compound 0.316 µM
[16] = second compound 1 µM, first compound 1 µM
[17] = second compound 1 µM, first compound 3.16 µM
[18] = second compound 1 µM, first compound 10 µM
[19] = second compound 3.16 µM, first compound 0.0316 µM
[20] = second compound 3.16 µM, first compound 0.1 µM
[21] = second compound 3.16 µM, first compound 0.316 µM
[22] = second compound 3.16 µM, first compound 1 µM
[23] = second compound 3.16 µM, first compound 3.16 µM
[24] = second compound 3.16 µM, first compound 10 µM
[25] = second compound 10 µM, first compound 0.0316 µM
[26] = second compound 10 µM, first compound 0.1 µM
[27] = second compound 10 µM, first compound 0.316 µM
[28] = second compound 10 µM, first compound 1 µM
[29] = second compound 10 µM, first compound 3.16 µM
[30] = second compound 10 µM, first compound 10 µM
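Note: spheroids exposed to compounds for seven days after three days of growth.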

IC50 (second compound 0.1 µM): > 10000 nM
IC50 (second compound 0.316 µM): > 10000 nM
IC50 (second compound 1 µM): > 10000 nM
IC50 (second compound 3.16 µM): > 10000 nM
IC50 (second compound 10 µM): > 10000 nM
SMILES: CC(C)c1c(-c2ccccc2)nc2c(C#N)c[nH]n2c1=O + Cc1ccccc1N=Nc1ccc(NC(=O)c2ccnn2C)c(C)c1
viability, T/C [1]: 86.5%
viability, T/C [2]: 86%
viability, T/C [3]: 91.9%
viability, T/C [4]: 88.7%
viability, T/C [5]: 89.8%
viability, T/C [6]: 96.5%
viability, T/C [7]: 79.3%
viability, T/C [8]: 85.2%
viability, T/C [9]: 86.1%
viability, T/C [10]: 81.2%
viability, T/C [11]: 94%
viability, T/C [12]: 85.9%
viability, T/C [13]: 84.2%
viability, T/C [14]: 86.2%
viability, T/C [15]: 80.8%
viability, T/C [16]: 87%
viability, T/C [17]: 83.6%
viability, T/C [18]: 81.8%
viability, T/C [19]: 78.6%
viability, T/C [20]: 72.3%
viability, T/C [21]: 78.8%
viability, T/C [22]: 76.8%
viability, T/C [23]: 74%
viability, T/C [24]: 65.8%
viability, T/C [25]: 58.1%
viability, T/C [26]: 61.2%
viability, T/C [27]: 58.6%
viability, T/C [28]: 63.9%
viability, T/C [29]: 65%
viability, T/C [30]: 50.3%

IC50 (second compound 0.1 µM): 38.5 nM
IC50 (second compound 0.316 µM): 43.9 nM
IC50 (second compound 1 µM): 33.1 nM
IC50 (second compound 3.16 µM): 20 nM
IC50 (second compound 10 µM): 13.2 nM
SMILES: CC1COCCN1c1cc(-c2ccnn2C)c2ccnc(-c3ccn[nH]3)c2n1 (stereo not given) + Cc1ccccc1N=Nc1ccc(NC(=O)c2ccnn2C)c(C)c1
viability, T/C (second compound 0.1 µM, first compound 0.00316 µM): 95.7%
viability, T/C (second compound 0.1 µM, first compound 0.01 µM): 86.6%
viability, T/C [1]: 54.5%
viability, T/C [2]: 26.6%
viability, T/C [3]: 18.5%
viability, T/C [4]: 15.5%
viability, T/C (second compound 0.316 µM, first compound 0.00316 µM): 90.8%
viability, T/C (second compound 0.316 µM, first compound 0.01 µM): 81.6%
viability, T/C [7]: 58.9%
viability, T/C [8]: 28.8%
viability, T/C [9]: 18%
viability, T/C [10]: 16.2%
viability, T/C (second compound 1 µM, first compound 0.00316 µM): 83.4%
viability, T/C (second compound 1 µM, first compound 0.01 µM): 74.3%
viability, T/C [13]: 51.8%
viability, T/C [14]: 25%
viability, T/C [15]: 19.3%
viability, T/C [16]: 15.7%
viability, T/C (second compound 3.16 µM, first compound 0.00316 µM): 79.2%
viability, T/C (second compound 3.16 µM, first compound 0.01 µM): 68.1%
viability, T/C [19]: 37.3%
viability, T/C [20]: 23.2%
viability, T/C [21]: 16.7%
viability, T/C [22]: 13.8%
viability, T/C (second compound 10 µM, first compound 0.00316 µM): 57.8%
viability, T/C (second compound 10 µM, first compound 0.01 µM): 57%
viability, T/C [25]: 29.8%
viability, T/C [26]: 25.1%
viability, T/C [27]: 19.2%
viability, T/C [28]: 15.8%

IC50 (second compound 0.1 µM): 2760 nM
IC50 (second compound 0.316 µM): 2520 nM
IC50 (second compound 1 µM): 2080 nM
IC50 (second compound 3.16 µM): 1810 nM
IC50 (second compound 10 µM): 1480 nM
SMILES: CC1COCCN1c1cc(C2(S(C)(=N)=O)CC2)nc(-c2ccnc3[nH]ccc23)n1 (stereo not given) + Cc1ccccc1N=Nc1ccc(NC(=O)c2ccnn2C)c(C)c1
viability, T/C [1]: 89.7%
viability, T/C [2]: 96%
viability, T/C [3]: 93.9%
viability, T/C [4]: 83.1%
viability, T/C [5]: 45.6%
viability, T/C [6]: 21%
viability, T/C [7]: 98.8%
viability, T/C [8]: 84.3%
viability, T/C [9]: 88.3%
viability, T/C [10]: 79.5%
viability, T/C [11]: 42.6%
viability, T/C [12]: 24.4%
viability, T/C [13]: 86.4%
viability, T/C [14]: 83.7%
viability, T/C [15]: 85.4%
viability, T/C [16]: 69.8%
viability, T/C [17]: 38.6%
viability, T/C [18]: 19.2%
viability, T/C [19]: 80%
viability, T/C [20]: 78.8%
viability, T/C [21]: 68%
viability, T/C [22]: 65.6%
viability, T/C [23]: 37.4%
viability, T/C [24]: 16.7%
viability, T/C [25]: 66.9%
viability, T/C [26]: 55.7%
viability, T/C [27]: 58.2%
viability, T/C [28]: 58.3%
viability, T/C [29]: 34.3%
viability, T/C [30]: 21.5%

IC50 (second compound 0.1 µM): 1950 nM
IC50 (second compound 0.316 µM): 1930 nM
IC50 (second compound 1 µM): 1650 nM
IC50 (second compound 3.16 µM): 1320 nM
IC50 (second compound 10 µM): 529 nM
SMILES: COc1ccc([C@@H](O)c2cc(-c3ncnc4cc(N5CCOCC5)ccc34)c(F)cc2Cl)nn1 + Cc1ccccc1N=Nc1ccc(NC(=O)c2ccnn2C)c(C)c1
viability, T/C [1]: 89.1%
viability, T/C [2]: 81.5%
viability, T/C [3]: 81%
viability, T/C [4]: 56.2%
viability, T/C [5]: 44.9%
viability, T/C [6]: 27%
viability, T/C [7]: 90%
viability, T/C [8]: 80.9%
viability, T/C [9]: 79.2%
viability, T/C [10]: 59.7%
viability, T/C [11]: 42.1%
viability, T/C [12]: 24%
viability, T/C [13]: 76.5%
viability, T/C [14]: 81.6%
viability, T/C [15]: 71.6%
viability, T/C [16]: 55.8%
viability, T/C [17]: 41%
viability, T/C [18]: 22.4%
viability, T/C [19]: 70.7%
viability, T/C [20]: 68%
viability, T/C [21]: 66.6%
viability, T/C [22]: 52%
viability, T/C [23]: 38.5%
viability, T/C [24]: 21%
viability, T/C [25]: 57.4%
viability, T/C [26]: 54.6%
viability, T/C [27]: 53.7%
viability, T/C [28]: 46.8%
viability, T/C [29]: 34.9%
viability, T/C [30]: 20.4%

IC50 (second compound 0.1 µM): 194 nM
IC50 (second compound 0.316 µM): 126 nM
IC50 (second compound 1 µM): 115 nM
IC50 (second compound 3.16 µM): 76.4 nM
IC50 (second compound 10 µM): 29.1 nM
SMILES: O=C(C=Cn1cnc(-c2cc(C(F)(F)F)cc(C(F)(F)F)c2)n1)NNc1cnccn1 + Cc1ccccc1N=Nc1ccc(NC(=O)c2ccnn2C)c(C)c1
viability, T/C (second compound 0.1 µM, first compound 0.00949 µM): 88.1%
viability, T/C (second compound 0.1 µM, first compound 0.03 µM): 84.6%
viability, T/C (second compound 0.1 µM, first compound 0.0949 µM): 75.5%
viability, T/C (second compound 0.1 µM, first compound 0.3 µM): 34.5%
viability, T/C (second compound 0.1 µM, first compound 0.949 µM): 16%
viability, T/C (second compound 0.1 µM, first compound 3 µM): 12%
viability, T/C (second compound 0.316 µM, first compound 0.00949 µM): 95.8%
viability, T/C (second compound 0.316 µM, first compound 0.03 µM): 77.9%
viability, T/C (second compound 0.316 µM, first compound 0.0949 µM): 58.1%
viability, T/C (second compound 0.316 µM, first compound 0.3 µM): 31%
viability, T/C (second compound 0.316 µM, first compound 0.949 µM): 14.9%
viability, T/C (second compound 0.316 µM, first compound 3 µM): 9.51%
viability, T/C (second compound 1 µM, first compound 0.00949 µM): 78.1%
viability, T/C (second compound 1 µM, first compound 0.03 µM): 61.8%
viability, T/C (second compound 1 µM, first compound 0.0949 µM): 57.9%
viability, T/C (second compound 1 µM, first compound 0.3 µM): 30.6%
viability, T/C (second compound 1 µM, first compound 0.949 µM): 13%
viability, T/C (second compound 1 µM, first compound 3 µM): 9.8%
viability, T/C (second compound 3.16 µM, first compound 0.00949 µM): 79.2%
viability, T/C (second compound 3.16 µM, first compound 0.03 µM): 64%
viability, T/C (second compound 3.16 µM, first compound 0.0949 µM): 48.2%
viability, T/C (second compound 3.16 µM, first compound 0.3 µM): 26.4%
viability, T/C (second compound 3.16 µM, first compound 0.949 µM): 15.2%
viability, T/C (second compound 3.16 µM, first compound 3 µM): 8.58%
viability, T/C (second compound 10 µM, first compound 0.00949 µM): 59.8%
viability, T/C (second compound 10 µM, first compound 0.03 µM): 50.8%
viability, T/C (second compound 10 µM, first compound 0.0949 µM): 37.1%
viability, T/C (second compound 10 µM, first compound 0.3 µM): 29.1%
viability, T/C (second compound 10 µM, first compound 0.949 µM): 18%
viability, T/C (second compound 10 µM, first compound 3 µM): 9.82%
